According to patent US20030125349A1, “Medicament containing cilansetron for the treatment of non-obstipative male irritable bowel syndrome patients” (Solvay Pharmaceuticals GmbH, priority 2000, published 2003):

Legend:
[1] = test system: non-obstipative IBS patients; test: 12-week placebo-controlled clinical double-blind study, adequate alleviation of IBS symptoms; format: in vivo, human; conditions: for Final success rate: all patients (471; both sexes); for Success rate (responder rate, adequate alleviation of IBS symptoms): provisional result (454 patients)
Description: The effect of cilansetron on non-obstipative IBS patients of both sexes was investigated in a 12-week placebo-controlled clinical double-blind study with randomized selection and parallel test groups. […] Likewise, those patients were included in the study who responded “No” to the question about pain/feeling of unwellness in the lower abdomen only in ≦50% of the cases or who judged their pain/feeling of unwellness in the lower abdomen as “restrictive” for <2 times over a two-week observation period. Cilansetron was used in doses of 1, 2, 8 and 16 mg. The patients were checked weekly for “adequate alleviation” (=primary effectiveness parameter) of their IBS symptoms (stomach pains such as pains in the abdomen, abnormal bowel activity). Stomach pains such as pains in the abdomen, nature of the stools and stool frequency were rated daily by the patients (=secondary effectiveness parameter). In a provisional result of the double-blind study, the data of a total of 454 patients (297 female patients and 157 male patients) were evaluated and plotted in the table below. Corresponding to the criteria on which the clinical double-blind study was based, in both patient subgroups of male IBS patients and female IBS patients the success rates relating to the “adequate alleviation” of the IBS symptoms as set forth in the table below were noted: The “primary effectiveness parameter” corresponds to the success rate (=“responder rate”) to the question, which was put weekly to the patients, as to whether they had experienced “adequate alleviation” of their IBS symptoms (pain/feeling of unwellness in the lower abdomen, abnormal bowel activity) during the course of the previous week. A “responder” is regarded as a patient who was treated for at least four weeks and who responded “Yes” to the question posed of whether “adequate alleviation” of his/her IBS symptoms had occurred for at least half of his/her treatment period. At the end of the double-blind study, the data of a total of 471 patients (308 female patients and 163 male patients) were evaluated. The final success rates were 40% for the placebo group, 62% for the dose 1 mg cilansetron (TID), 53% for the dose 2 mg cilansetron (TID), 55% for the dose 8 mg cilansetron (TID) and 63% for the dose 16 mg cilansetron (TID).

[2] = test system: non-obstipative IBS patients; conditions: clinical tests, WO 99/17755, cited from earlier work

Structure (SMILES) | Final success rate ([1]; 1 mg TID, end of study) [%] | Final success rate ([1]; 2 mg TID, end of study) [%] | Final success rate ([1]; 8 mg TID, end of study) [%] | Final success rate ([1]; 16 mg TID, end of study) [%] | Response to treatment of non-obstipative IBS patients of both sexes ([1]; doses 1, 2, 8 and 16 mg) | Final success rates, male compared with female patient groups ([1]; end of study, greatest differences at 1 mg TID) | Success rate (responder rate, adequate alleviation of IBS symptoms) ([1]; female patients, 1 mg TID) [%] | Success rate (responder rate, adequate alleviation of IBS symptoms) ([1]; female patients, 2 mg TID) [%] | Success rate (responder rate, adequate alleviation of IBS symptoms) ([1]; female patients, 8 mg TID) [%] | Success rate (responder rate, adequate alleviation of IBS symptoms) ([1]; female patients, 16 mg TID) [%] | Success rate (responder rate, adequate alleviation of IBS symptoms) ([1]; male patients, 1 mg TID) [%] | Success rate (responder rate, adequate alleviation of IBS symptoms) ([1]; male patients, 2 mg TID) [%] | Success rate (responder rate, adequate alleviation of IBS symptoms) ([1]; male patients, 8 mg TID) [%] | Success rate (responder rate, adequate alleviation of IBS symptoms) ([1]; male patients, 16 mg TID) [%] | Effectiveness on female IBS patients compared with male IBS patients [2] | Improvement in condition compared with the placebo group ([2]; male test subjects)
Cc1nccn1C[C@H]1CCc2c(c3cccc4c3n2CCC4)C1=O [Cilansetron, (R)-(−)-4,5,6,8,9,10-hexahydro-10-[(2-methyl-1H-imidazol-1-yl)methyl]-11H-pyrido-[3,2,1-jk]-carbazol-11-one] | 62 | 53 | 55 | 63 | respond to the treatment with cilansetron in all the dosages investigated | very similar for the male and female patient groups | 69.6 | 60.3 | 56.9 | 61.4 | 51.3 | 63.0 | 56.3 | 58.6 |  | 
Cc1[nH]cnc1CN1CCc2c(c3ccccc3n2C)C1=O [alosetron] |  |  |  |  |  |  |  |  |  |  |  |  |  |  | significantly better effectiveness on female IBS patients | no significant improvement in condition compared with the placebo group
